From BindingDB's records for doi:10.1021/jm001043t (Lawrence Berkeley National Laboratory, 2001) come the findings set out here.

Experiment [1] deals with Cyclin-dependent kinase/G2/mitotic-specific cyclin- 1 (Homo sapiens, UniProt P06493). Description: CDK1/Cyclin B Kinase SPA Assay. As to conditions: pH 8; 30 °C. The procedure: The biochemical activity of compounds was determined by incubation with specific enzyme and substrate in the presence 0.5 uM ATP/ [gamma-33P] ATP. After incubation, the reaction was stopped and the phosphorylated substrate was separated from nonincorporated radioactive ATP using Streptavidin-coated SPA beads, counted using TopCount (Packard) to measure substrate-incorporated phosphate.
Sequence of Cyclin-dependent kinase/G2/mitotic-specific cyclin- 1 (P06493 whole entry): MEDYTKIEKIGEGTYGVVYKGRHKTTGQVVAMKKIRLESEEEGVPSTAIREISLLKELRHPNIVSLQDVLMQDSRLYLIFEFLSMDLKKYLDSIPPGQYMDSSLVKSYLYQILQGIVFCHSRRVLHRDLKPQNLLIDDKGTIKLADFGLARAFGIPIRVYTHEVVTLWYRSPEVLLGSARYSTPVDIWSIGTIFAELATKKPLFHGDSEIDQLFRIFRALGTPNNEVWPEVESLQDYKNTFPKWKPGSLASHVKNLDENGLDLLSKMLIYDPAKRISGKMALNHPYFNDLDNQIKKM
Sequence of Cyclin-dependent kinase/G2/mitotic-specific cyclin- 1 (P14635 whole entry, further chain): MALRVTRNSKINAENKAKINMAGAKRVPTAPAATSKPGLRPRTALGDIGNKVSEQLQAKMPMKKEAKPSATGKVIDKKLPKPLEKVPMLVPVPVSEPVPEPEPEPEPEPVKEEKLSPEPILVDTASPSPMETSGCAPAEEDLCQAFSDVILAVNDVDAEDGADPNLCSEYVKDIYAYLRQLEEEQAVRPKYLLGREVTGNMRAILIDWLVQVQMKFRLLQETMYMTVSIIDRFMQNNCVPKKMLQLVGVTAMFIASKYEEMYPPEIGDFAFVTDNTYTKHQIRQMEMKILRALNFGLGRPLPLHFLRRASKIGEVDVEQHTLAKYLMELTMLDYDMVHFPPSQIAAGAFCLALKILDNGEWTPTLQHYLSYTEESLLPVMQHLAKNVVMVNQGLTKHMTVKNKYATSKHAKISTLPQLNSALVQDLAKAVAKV

Experiment [2] has as its target Cyclin-dependent kinase 4/G1/S-specific cyclin-D1 (Homo sapiens, UniProt P11802). Kind of experiment: CDK2/Cyclin E and CDK4/Cyclin D1 Kinase Assay. As to conditions: pH 7.5; 30 °C. The procedure: (§1) The enzyme was assayed with substrate GST-Rb in the presence of 10 uM ATP/[gamma-33P] ATP, and capturing the 33-P labeled reaction products on GSH-Sepharose beads. […] Use of 33P-labeled ATP allows this transfer to be monitored by scintillation counting.

For experiment [3], the target named is Cyclin-dependent kinase 2/G1/S-specific cyclin-E1 (Homo sapiens, UniProt P24941). Description: CDK2/Cyclin E and CDK4/Cyclin D1 Kinase Assay. Conditions: pH 7.5; 30 °C. The procedure:
as §1

As a reminder, the IC50 is the concentration needed to halve the response being measured. Read a high IC50 as a need for much substance.

Sequence of Cyclin-dependent kinase 4/G1/S-specific cyclin-D1 (P11802 whole entry): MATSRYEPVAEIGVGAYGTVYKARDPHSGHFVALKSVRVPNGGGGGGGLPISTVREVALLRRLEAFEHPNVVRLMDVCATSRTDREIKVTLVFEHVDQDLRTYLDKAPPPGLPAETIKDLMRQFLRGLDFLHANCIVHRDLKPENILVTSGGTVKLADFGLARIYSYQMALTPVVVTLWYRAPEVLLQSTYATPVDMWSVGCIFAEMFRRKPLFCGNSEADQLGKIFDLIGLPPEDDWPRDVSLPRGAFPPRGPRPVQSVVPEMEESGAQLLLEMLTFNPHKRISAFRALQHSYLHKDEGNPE
Sequence of Cyclin-dependent kinase 4/G1/S-specific cyclin-D1 (P24385 whole entry, further chain): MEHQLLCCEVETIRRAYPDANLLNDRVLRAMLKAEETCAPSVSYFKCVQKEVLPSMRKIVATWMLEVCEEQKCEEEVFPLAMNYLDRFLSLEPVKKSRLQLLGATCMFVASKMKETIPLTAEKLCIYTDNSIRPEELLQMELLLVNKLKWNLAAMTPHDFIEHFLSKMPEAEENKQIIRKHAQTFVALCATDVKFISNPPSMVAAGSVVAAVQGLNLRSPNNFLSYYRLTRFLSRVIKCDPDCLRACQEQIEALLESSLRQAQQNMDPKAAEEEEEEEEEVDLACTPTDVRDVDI

Consider `C[C@@H](Nc1nc(N[C@H]2CC[C@H](N)CC2)nc2c1ncn2C1CCCC1)c1ccccc1` [2,6,9-trisubstituted adenine derivative], for which the IC50 in experiment [1] was determined as 2000 nM; in experiment [2], 8800 nM; in experiment [3], 720 nM.
